# Experimental data taken from US11608320B2, “Oxazolidinone hydroxamic acid derivatives” (KUWAIT UNIVERSITY, priority 2020, dated 2023).
# Key:
# [1] = test system: LTC4 release from IgE/antigen-activated mouse mast cells (BMMC); experiment: Inhibition of LTC4 release in allergen/IgE-activated bone marrow-derived mouse mast cells; format: cell-based; settings: BMMC, anti-DNP IgE sensitized, DNP-BSA 30 ng/ml, 30 min
# Description: (§1) Inhibition of LTC4 release and degranulation in allergen/IgE-activated bone marrow-derived mouse mast cells (BMMC): Bone marrow-derived mast cells (BMMC) were generated from pathogen-free 5-7 week old male Balb/c mice according to the method of Davis et al., [2004] (Davis, B. J., et al., (2004), Journal of Immunology, 173: 6914-6920). Essentially, bone marrow cells were obtained by flushing of the femoral bone marrow and cultured in RPMI 1640 medium supplemented with 10% FBS, 100 U/ml penicillin, and 100 μg/ml streptomycin, 25 mM HEPES, 1.0 mM sodium pyruvate, 0.1 mM nonessential amino acids, 0.0035% 2-mercaptoethanol, and 30 ng/ml mouse recombinant IL-3, with culture medium replaced every two days. Cells were used after 4-8 weeks of culture, by which time at least 97% of the cells would have differentiated into mast cells.
# (§2) The generated BMMCs were seeded at 5×10^4 cells/well in a 96-well flat-bottom culture plate and passively sensitized overnight with 0.5 μg/ml anti-DNP monoclonal IgE antibody (clone SPE-7, Sigma-Aldrich, St. Louis, Mo., USA). The cells were then washed twice to remove any unbound antibody and subsequently re-suspended in reaction buffer (135 mM NaCl, 5 mM KCl, 1.8 mM CaCl2), 1 mM MgCl2, 5.6 mM glucose, 0.05% BSA and 20 mM HEPES, pH 7.4). They were then pre-incubated with the test compounds (0.01-30 μM) or the solvent (0.05% DMSO) for 15 min before being stimulated with the specific antigen, DNP-BSA (30 ng/ml). After 30 min incubation at 37° C., the amount of LTC4 released into the supernatant (as index of 5-LO activity) was determined by ELISA as described below.
# Assay of released leukotrienes/β-hexoseaminidase enzyme: Appropriately diluted supernatants were assayed for the released LTs (LTB4 and LTC4), by the enzyme immunoassay (EIA) method using assay kits supplied by R&D Systems (Minneapolis, Minn., USA) and following the manufacturer's instructions.
# [2] = test system: degranulation of bone marrow-derived mouse mast cells; experiment: Inhibition of degranulation (β-hexoseaminidase release) in allergen/IgE-activated BMMC; format: cell-based; settings: anti-DNP IgE sensitized, DNP-BSA 30 ng/ml, 30 min
# Description: as §1
# as §2, with “They were then pre-incubated with the test compounds (0.01-30 μM) or the solvent (0.05% DMSO) for 15 min before being stimulated with the specific antigen, DNP-BSA (30 ng/ml).” left out
# The concurrently-released granular enzyme, β-hexoseaminidase (as index of degranulation) was determined as described below.
# The beta-hexoseaminidase released into the supernatant by the degranulating BMMCs was determined colorimetrically using p-nitrophenyl-N-acetyl-β-D-glucosaminide as substrate. […] The absorbance of the colored product (p-nitrophenol) was then read at 405 nm in a microplate reader. Results were expressed as percentage of the total cell content (determined in cells lysed with 0.1% triton-x-100).
# [3] = test system: zymosan-induced peritonitis; experiment: Zymosan-induced peritoneal inflammation in mice; format: in vivo, mouse; settings: 30 min before zymosan i.p., peritoneal exudate at 2 h
# Description: Inhibition of zymosan-induced peritoneal inflammation in mice: Female Balb/c mice, 6-8 weeks old, obtained from the Animal Resources Center of the Health Sciences Center, Kuwait University, were used. They were maintained under temperature-controlled conditions with an artificial 12-h light/dark cycle and allowed standard chow and water ad libitum. The study protocol was approved by the “Health Sciences Center Animal Welfare Committee” and complied with the “Guidelines for the Care and Use of Laboratory Animals” of the Health Sciences Centre, Kuwait University. The zymosan-induced peritonitis model-a recognized LT-mediated inflammatory reaction, described particularly in Hanke et al., 2013 ([…]., et al. (2013). Journal of medicinal chemistry, 56(22), 9031-9044) was used. […] After 30 min, all groups were injected intraperitonally with 0.2 ml of activated zymosan (2 mg/ml) except the control group that received 0.2 ml PBS. After 2 h, all animals were killed and the peritoneal exudate was collected by washing the cavity with 3 ml of heparinized (10 IU/ml) PBS.
# isolated human monocytes = experiment: In vitro toxicity testing (MTT viability); format: cell-based; settings: concentrations up to 50 μM, 3 h or 24 h, n=3
# Method: In Vitro Toxicity Testing: Adherent human monocytes, prepared as described above, were used. The cells were cultured with various concentrations of the test compounds or vehicle, or with 0.05% Triton-X as positive control for 3 h or 24 h. At the end of the culture, cell viability was determined using the MTT (3-(4,5 dimethylthiazol-2-yl)-2,5-diphenyltetrazolium bromide) assay method. Briefly, 15 μl of the MTT solution (5 mg/ml) was added to each well, and incubated at 37° C. for 4 h. After removing the supernatant, 200 μl of dimethylsulfoxide (DMSO) was added to dissolve the crystals. Absorbance at 570 nm was then measured in a microplate reader. Viability was expressed as percentage of the vehicle-treated cells.
# [4] = target: T1, recombinant human 5-LO enzyme (Homo sapiens, UniProt P09917); experiment: Direct 5-LO inhibitory activity in a cell-free assay (H2DCF-DA fluorescence); format: biochemical; settings: cell-free, recombinant human 5-LO; read-out: Inhibitory Activity IC50, Human recomb. 5-LO
# T1 sequence (P09917 1-674): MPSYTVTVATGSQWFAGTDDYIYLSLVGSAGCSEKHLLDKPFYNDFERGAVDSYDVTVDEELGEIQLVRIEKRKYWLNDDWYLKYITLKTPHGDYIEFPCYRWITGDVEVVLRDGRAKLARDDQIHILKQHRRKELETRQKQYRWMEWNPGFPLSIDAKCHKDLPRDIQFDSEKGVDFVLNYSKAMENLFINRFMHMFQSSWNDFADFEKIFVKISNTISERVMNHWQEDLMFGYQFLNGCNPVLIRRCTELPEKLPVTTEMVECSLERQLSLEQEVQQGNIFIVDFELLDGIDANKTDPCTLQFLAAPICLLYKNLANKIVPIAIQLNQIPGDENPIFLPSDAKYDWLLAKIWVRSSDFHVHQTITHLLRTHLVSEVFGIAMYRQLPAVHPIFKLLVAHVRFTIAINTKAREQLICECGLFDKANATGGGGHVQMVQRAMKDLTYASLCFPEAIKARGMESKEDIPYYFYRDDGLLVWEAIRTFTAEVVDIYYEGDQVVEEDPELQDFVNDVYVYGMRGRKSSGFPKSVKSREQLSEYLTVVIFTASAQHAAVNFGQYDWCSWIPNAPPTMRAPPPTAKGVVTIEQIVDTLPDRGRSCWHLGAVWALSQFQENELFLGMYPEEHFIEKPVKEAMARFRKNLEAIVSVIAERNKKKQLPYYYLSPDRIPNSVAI
# Method: H2DCF-DA (60 μM) was first pre-cleaved by incubating with 450 mU/ml recombinant human 5-LO enzyme in Tris buffer (containing 50 mM Tris, pH=7.5, 2 mM EDTA, 2 mM CaCl2), 1 mM dithiothreitol (DTT) and 0.6 U/ml glutathione peroxidase) for 10 min at room temperature. […] After 10 min incubation at room temperature, the reaction was started with the addition of 50 μl of the substrate solution (Tris buffer containing 20 μM ATP and 20 μM arachidonic acid). After a further 20 min, the reaction was terminated with 100 μl acetonitrile. Fluorescence was read at 500 nm excitation and 520 emission, with Novostar® microplate reader (BMG Labtech, Offenburg, Germany). Appropriate controls, including 100 μM nordihydroguaiaretic acid (NDGA), were included to isolate only the 5-LO-attributable, NDGA-inhibitable RFU values.
structure (smiles),measurement,setting,value
"CCCCCCC(=O)N(O)C[C@H]1CN(c2ccc(N3CCOCC3)c(F)c2)C(=O)O1 [PH-249, (R)—N-((3-(3-fluoro-4-morpholinophenyl)-2-oxooxazolidin-5-yl)methyl)-N-hydroxyheptanamide]",Inhibition of generation of LTC4 from IgE/allergen-activated mast cells (FIG. 2A),[1],equally effective in inhibiting the generation of LTC4
same,Inhibition of degranulation (release of granular β-hexoseaminidase) (FIG. 2B),[2],able to inhibit degranulation
same,Net Exudate Vol,[3]; 10 mg/kg s.c.,0.16 ± 0.08 mL
same,Total Cell No,[3]; 10 mg/kg s.c.,39.7 ± 6.6 ×10^6
same,Total LTC4,[3]; 10 mg/kg s.c.,107.2 ± 51.6 ng
same,Net Exudate Vol,[3]; 30 mg/kg s.c.,0.06 ± 0.01 mL
same,Total Cell No,[3]; 30 mg/kg s.c.,17.8 ± 2.2 ×10^6
same,Total LTC4,[3]; 30 mg/kg s.c.,102.8 ± 20.9 ng
same,melting point,,123 to 125 °C
same,Effect on viability of isolated human monocytes (MTT),isolated human monocytes,no significant effect on cell viability
same,IC50,[4],1900 nM
